Data: ChEMBL document CHEMBL3102853, “Carbonic anhydrase inhibitors. Synthesis, and molecular structure of novel series N-substituted N'-(2-arylmethylthio-4-chloro-5-methylbenzenesulfonyl)guanidines and their inhibition of human cytosolic isozymes I and II and the transmembrane tumor-associated isozymes IX and XII” (Eur J Med Chem, 2014)

Biological target: Carbonic anhydrase 9 (Homo sapiens, UniProt Q16790)

Cc1cc(S(=O)(=O)NC(=N)NCc2ccc(S(N)(=O)=O)cc2)c(SCc2cc(=O)[nH]c3ccccc23)cc1Cl
Ki: 310 nM
